The text below walks through data of patent US20180094019A1, “CRYSTALLINE FORMS OF MODIFIED TRITERPENOID HYDROCHLORIDE SALTS WITH HIV MATURATION INHIBITOR ACTIVITY” (VIIV HEALTHCARE UK (NO.4) LIMITED, priority 2015, published 2018).

A short description of series [1]: Relationship of the crystalline forms: relative thermodynamic stability and critical water activity. In kind it is physicochemical. The settings on record: ambient conditions; T1F-2 compared with T1F-1. The source says:
Herein we describe three crystalline forms of the monohydrochloride salt, Compound I, that have been prepared and identified: the monohydrochloride monohydrate H-4 form and two monohydrochloride forms designated as […]-1 and […]-2. […] The critical water activity between the […]-2 and H-4 forms is in the range 0.05-0.24.

The nature of series [2]: Dehydration of form H-4 to anhydrous form P44 on drying / sensitivity to relative humidity. In kind it is physicochemical. On the procedure: Additionally, the ternary solvent mixture THF/water/MeCN can be used. If the resultant H-4 form is dried at a temperature greater than 60° C., then it converts to an anhydrous form of H-4, designated as P44. […] In practice, to minimize conversion to the P44 form, the drying can be conducted under a stream of humidified nitrogen gas.

Take `C=C(C)[C@@H]1CC[C@]2(NCCN3CCS(=O)(=O)CC3)CC[C@]3(C)[C@H](CC[C@@H]4[C@@]5(C)CC=C(c6ccc(C(=O)O)cc6)C(C)(C)[C@@H]5CC[C@]43C)[C@@H]12.Cl` [Form T1F-2, 4-((1R,3aS,5aR,5bR, 7aR, 11aS,11bR,13aR,13bR)-3a-((2-(1,1-dioxidothiomorpholino)ethyl)amino)-5a,5b,8,8,11a-pentamethyl-1-(prop-1-en-2-yl)-2,3,3a,4,5,5a,5b,6,7,7a,8, 11,11a,11b, 12,13,13a,13b-octadecahydro-1H-cyclopenta[a]chrysen-9-yl)benzoic acid hydrochloride]: in series [1], the “relative thermodynamic stability of the crystalline forms” value is “thermodynamically more stable than T1F-1 form”.

Take `C=C(C)[C@@H]1CC[C@]2(NCCN3CCS(=O)(=O)CC3)CC[C@]3(C)[C@H](CC[C@@H]4[C@@]5(C)CC=C(c6ccc(C(=O)O)cc6)C(C)(C)[C@@H]5CC[C@]43C)[C@@H]12.Cl` [Form H-4, 4-((1R,3aS,5aR,5bR, 7aR, 11aS,11bR,13aR,13bR)-3a-((2-(1,1-dioxidothiomorpholino)ethyl)amino)-5a,5b,8,8,11a-pentamethyl-1-(prop-1-en-2-yl)-2,3,3a,4,5,5a,5b,6,7,7a,8, 11,11a,11b, 12,13,13a,13b-octadecahydro-1H-cyclopenta[a]chrysen-9-yl)benzoic acid hydrochloride hydrate]: the “sensitivity to relative humidity” value in series [2] was “sensitive to relative humidity”. Moreover, the “drying temperature at which H-4 converts to anhydrous form P44” value in series [2] (drying of the resultant H-4 form) is “greater than 60 °C”. Moreover, the “temperature of dehydration to the P44 form” value in series [2] (under a stream of dry nitrogen gas) is ≥ 30 °C.
